These results are taken from PubChem BioAssay AID2305 (GlaxoSmithKline (GSK), 2010).

In the assay the test system is P. falciparum 3D7 growth, pLDH absorbance. Briefly: P. falciparum 3D7 growth inhibition, dose response, strain 3D7 (AID 2305).

Usually IC50 stands for the point on the concentration scale where inhibition reaches its midpoint. A lower IC50 goes with greater potency in that assay. In turn, `COc1ccc2nccc([C@@H](O)CN3CCC(NCCOc4cccc(C(F)(F)F)c4)CC3)c2c1` came in with an IC50 of 160 nM.

The molecule `CC(C)(CNC(=O)[C@@H]1CCCN(Cc2ccc(Cl)cc2)C1)c1nc(-c2ccc(Cl)c(O)c2)c(-c2ccncc2)[nH]1` gave an IC50 of 940 nM.

Consider `COC(=O)c1cccc(N2CCN(CCCNC(=O)/C(=C/C=C/c3cc4cc(Cl)c(Cl)cc4[nH]3)OC)CC2)c1`, for which the IC50 was 670 nM.

Take `OC(CNC1CCCCCC1)c1ccc(Cl)c(Cl)c1` (configuration not stated): the IC50 was 690 nM.

In the case of `COc1cc(-c2ccc3c(-c4ccc(C(=O)N5CCN(C)CC5)cc4)[nH]nc3n2)cc(OC)c1OC`, the IC50 came out at 1330 nM. Against the preceding molecule, the IC50 is about 1.9-fold higher.

As for `CC(C)(C)C/C=C\c1ccc(C(=O)NCC2CC2)cc1`, the IC50 is 850 nM.

`CCOc1cc(-c2nnc3[nH]c(=O)n(C)c(=O)c3n2)ccc1OC(C)C` gave an IC50 of 400 nM.

With `CN(C)c1ccc(N2C(N)=NC(N)=NC23CCCC3)cc1`, the IC50 was found to be 930 nM.

`Cc1cccc2[nH]c(-c3ccc(-c4cccc(NCc5cn6cccnc6n5)c4)cc3)nc12`: the IC50 was determined as 790 nM. The IC50 values of the last two molecules are within 1.5-fold of each other.

Molecule `Oc1ccc(CCNc2nc(NCc3cccc(OCc4cccc(F)c4)c3)nc(N3CCNCC3)n2)cc1` gave an IC50 of 1340 nM.

For the molecule `COC(=O)c1cccc(CNCc2ccc(-c3cccc(-c4nc5ccc(C(F)(F)F)cc5[nH]4)c3)cc2)c1`, the IC50 came to 160 nM. Against the preceding molecule, the IC50 is about 8.4-fold lower.

Turning to `Nc1ccnc(N2CCC(CCOc3cc(C(F)(F)F)nc4c(C(F)(F)F)cccc34)CC2)c1`, the IC50 was found to be 790 nM.

In turn, `Cc1[nH]c2ccc(-c3ccccc3)cc2c(=O)c1Br` came in with an IC50 of 160 nM.

In turn, `CN1C[C@@H](c2ccccc2)c2cc(O)c(CN3CCCCC3)cc2C[C@H]1Cc1ccccc1` yielded a half-inhibitory concentration (IC50) of 180 nM.

`O=C(NCc1cccc(F)c1)Nc1cccc(-c2ccc(-c3nc4ccc(C(F)(F)F)cc4[nH]3)cc2)c1` came in with an IC50 of 770 nM. This IC50 lies about 4.3-fold higher than the previous one.

In the case of `CC(Cc1ccc(NC(=O)CCCc2ccccc2)cc1)NCCc1cccc(Cl)c1` (configuration not stated), the IC50 was 950 nM. This IC50 and that of the molecule before are within 1.5-fold of each other.

For `Cc1ccc2ccncc2c1N`, the IC50 was 700 nM.

`CCSc1ccccc1COc1c(C)nc(N)nc1N` showed an IC50 of 70 nM.

In the case of `NC[C@H](CC1CCCCC1)NC(=O)c1ccc(-c2ccnc3[nH]ccc23)s1`, the IC50 was 950 nM.

On to `Cc1cccc2[nH]c(-c3cccc(-c4cccc(CN5CCC(CO)CC5)c4)c3)nc12`, for which the IC50 was 720 nM.

`CCOC(=O)CCCc1cc(NC2CCN(C)CC2)nc(Nc2ccc(C)cc2)n1`: the IC50 was found to be 260 nM.

Take `Cc1cc2cc(/C=C/C(=O)NC3CCC(CCN4CCc5ccc(C#N)cc5CC4)CC3)ccc2[nH]1` (configuration not stated): the IC50 worked out at 880 nM.

On to `CCCCCc1cc(OCCN(C)C)cc2c1C(=O)CC(C)(C)O2`, for which the IC50 was found to be 100 nM.

`CC[C@H](C)CNC(=O)c1cccc(-c2cccc(CNCC3CNCCCO3)c2)n1` (some centres not stated) registered an IC50 of 1080 nM. This IC50 is about 11-fold higher than that of the molecule before.

The molecule `CC(C)(C)c1ccccc1SC1=C(O)CC2(CCNCC2)OC1=O` gave an IC50 of 880 nM.

The molecule `N#Cc1ccnc(-c2ccc(CNC3CCN(CC4Cn5c(=O)ccc6ccc(F)c4c65)CC3)cc2)c1` (configuration not stated) registered an IC50 of 1220 nM. This IC50 and that of the molecule before are within 1.5-fold of each other.

Regarding `CCn1c(Sc2ccc([N+](=O)[O-])c(C#N)c2)nnc1-c1cccc(Cl)c1`, the IC50 was found to be 870 nM.

As for `COc1cc(-c2nc(-c3ccccc3)c(-c3ccc(C(=O)c4ccc(F)cc4)cc3)[nH]2)cc(OC)c1O`, the IC50 came out at 660 nM. This IC50 and that of the molecule before are within 1.5-fold of each other.

As for `Cc1cc(N)nc2ccc(CNCCc3ccccc3Br)cc12`, the IC50 was 120 nM.

For the molecule `N#Cc1cccc(C(=O)Nc2cccc(-c3ccc(CN4CCCC4)cc3)c2)c1`, the IC50 came out at 700 nM. This IC50 lies about 5.8-fold higher than the previous one.

On to `O=C(Nc1ccc(Cl)cc1)c1ccc(S(=O)(=O)NCC2CCN(CC3CCCCC3)CC2)cc1`, for which the IC50 is 860 nM. This IC50 and that of the molecule before are within 1.5-fold of each other.

In turn, `Cc1ccc(-n2c(=O)c3cccnc3n2CC(=O)Nc2cccc(C)c2C)cc1` gave an IC50 of 860 nM.

For the molecule `Cn1nccc1C(=O)NCCNCc1cccc(-c2ccc(-c3nc4ccc(C(F)(F)F)cc4[nH]3)cc2)c1`, the IC50 was found to be 120 nM.

As for `Fc1cccc(COc2ccc(Nc3ncnc4sc(C#CC5CCCCN5)cc34)cc2Cl)c1` (configuration not stated), the IC50 was 540 nM.

As for `CCN1CCCC1CNC(=O)c1cc2c(-c3ccc(Cl)cc3)nn(C)c2s1` (configuration not stated), the IC50 was determined as 790 nM.

Regarding `NC(N)=NN=Cc1c2ccccc2c(Cl)c2cc(Cl)ccc12`, the half-inhibitory concentration (IC50) came to 790 nM.

On to `CC(C)Cn1cc(C2CCN(CCN3CCC(CNC(=O)c4ccc(NC(=O)c5cc(Cl)cc(Cl)c5)cc4)CC3)CC2)c2ccccc21`, for which the half-maximal inhibitory concentration (IC50) stood at 690 nM.

For the molecule `COc1cccc(C(=O)Nc2ccc(S(=O)(=O)c3cc4c(cc3OC)CCN(C)CC4)cc2)c1`, the IC50 stood at 1100 nM.

Molecule `O=C(Nc1cc(Cl)cc(Cl)c1)c1cc(Cl)c(=O)n(Cc2ccc(Cl)cc2)c1` came in with an IC50 of 860 nM.

Consider `O=C(/C=C/c1ccc(Cl)cc1)Nc1ccc2nc(CN3CCCC3)ccc2c1`, for which the IC50 was found to be 80 nM.

As to `CC(C)(CNCc1ccc(C(F)(F)F)cc1)c1nc(-c2ccc(Cl)c(O)c2)c(-c2ccncc2)[nH]1`, the IC50 turned out to be 730 nM.

`C=C1N(C)c2cc([N+](=O)[O-])c(N)cc2C1(C)C` displayed an IC50 of 490 nM.

The molecule `C#CCCC(=O)Nc1cccc(-c2cccc(-c3nc4c(C)cccc4[nH]3)c2)c1` showed an IC50 of 740 nM.

As for `CN(C)c1cc(NC(=O)Nc2ccc(SC(F)(F)F)cc2)c2ccccc2n1`, the IC50 was determined as 140 nM.

Molecule `Cc1nc2nc(N)nc(N)c2c(C)c1Cc1ccccc1` returned an IC50 of 250 nM.

`Nc1cccc(CNCc2cccc(-c3cccc(-c4nc5ccc(F)cc5[nH]4)c3)c2)c1`: the IC50 is 690 nM. This IC50 lies about 2.8-fold higher than the previous one.

Regarding `COc1cccc(COCC(O)CN(CCc2ccccn2)C(=O)c2ccccc2F)c1` (configuration not stated), the IC50 was 820 nM.

`CS(=O)(=O)c1ccc2c(c1)CCN(CCC1CCC(NC(=O)C(=Cc3cccc(C#N)c3)c3ccc(-c4ccccc4)cc3)CC1)CC2` (configuration not stated) registered an IC50 of 840 nM.

Regarding `Cc1nnc2c(NC(=O)/C=C/c3ccc(OC(F)(F)F)cc3)cc3cc(Cl)ccc3n12`, the concentration for half-maximal inhibition (IC50) turned out to be 170 nM. Compared with the last molecule, the IC50 is about 4.9-fold lower.

`CC(C)(C)c1ccc(NC(=O)c2cccc(CN3CCCN(CC4CCCCC4)CC3)c2)cc1` displayed an IC50 of 740 nM.

With `CCCCCCOc1ccc(C(=O)NCCC2CCN(CCCCCNC(=O)C=Cc3ccc(Cl)c(Cl)c3)CC2)cc1`, the IC50 is 660 nM.

As to `Cc1cc(NN=Cc2ccccc2)c2cc(F)ccc2n1`, the IC50 is 580 nM.

Molecule `CCOc1cc(C(=O)Nc2cccnc2)cc(Br)c1OCCC(C)C` had an IC50 of 1080 nM.

Regarding `CC(C)(C)c1ccc(CN2CCC(CNC(=O)c3cc(-c4cccc(C(F)(F)F)c4)cs3)C2)cc1` (configuration not stated), the IC50 was 1030 nM. This IC50 and that of the molecule before are within 1.5-fold of each other.

Turning to `COCCCNc1sc(S(=O)(=O)c2ccccc2)nc1S(=O)(=O)c1ccc(Cl)cc1`, the IC50 is 880 nM.

Turning to `Cc1ccc(-n2nc3ccc(NC(=O)c4ccc([N+](=O)[O-])o4)cc3n2)cc1C`, the IC50 worked out at 400 nM.

On to `CNC(=O)c1cnc(Nc2ccc(N3CCN(C)CC3)cc2)nc1Nc1cccc(OC)c1`, for which the IC50 turned out to be 750 nM.

The molecule `COc1ccc(S(=O)(=O)N2CCCC(C)C2)cc1N1CCN(C(=O)c2ccc([N+](=O)[O-])o2)CC1` (configuration not stated) showed an IC50 of 1250 nM.

On to `COc1cccc(CNC(=O)NC2CCN(c3ccnc(Nc4cc(OC)c(OC)c(OC)c4)n3)C2)c1` (configuration not stated), for which the IC50 was 710 nM.

`CC(C)c1cc(Oc2c(I)cc(CCNCc3ccccc3)cc2I)ccc1O`: the IC50 worked out at 540 nM.

As for `COc1ccc(C(=O)Nc2cc(Br)c3c(c2)CNCC3)cc1C(F)(F)F`, the IC50 worked out at 1070 nM.

`CCOC(=O)c1ccc2nc(-c3ccc(C(=O)NC4CCN(Cc5ccccc5)CC4)s3)[nH]c2c1`: the IC50 is 740 nM.

Molecule `COCCNCc1ccc(-c2cccc(CN(C(=O)CCC3CCCC3)C3CCN(Cc4ccccc4)CC3)c2)cc1` showed an IC50 of 940 nM.

With `Cc1ccc(C(=O)Nc2ccc(-c3nc4ccccc4[nH]3)cc2)cc1S(=O)(=O)N1CCOCC1`, the IC50 worked out at 1210 nM. The IC50 values of the last two molecules are within 1.5-fold of each other.

`Cc1ccc2c(NC(=O)Nc3ccc(N(C)C)cc3)cc(C)nc2c1` came in with a concentration for half-maximal inhibition (IC50) of 820 nM.

`COc1cc(-c2nc3c4ccccc4c4ccccc4c3[nH]2)cc(OC)c1OC` had an IC50 of 850 nM. This IC50 and that of the molecule before are within 1.5-fold of each other.

In turn, `NC1=NC(C=Cc2ccccc2)N(OCCCCCCON2C(N)=NC(N)=NC2C=Cc2ccccc2)C(N)=N1` (configuration not stated) had an IC50 of 610 nM.

In turn, `Cn1cncc1-c1cc2c(Nc3ccc(OCc4ccccc4)cc3)ncnc2cn1` had an IC50 of 270 nM.

`CC1CN(c2ccc(C(=O)NCC3CC3)cc2NC(=O)OCc2ccccc2)CC(C)O1` (configuration not stated) showed an IC50 of 1300 nM.

In turn, `COc1ccc2nccc(NC(=O)CNCc3ccc(-c4ccccc4)cc3)c2c1` returned an IC50 of 770 nM.

Regarding `CC(C)CCCC(C)(C)NC[C@@H](O)[C@H](Cc1ccccc1)NC(=O)c1cc(NC(C)C)cc(N2CCCCS2(=O)=O)c1`, the IC50 is 210 nM. Against the preceding molecule, the IC50 is about 3.7-fold lower.

`Cc1[nH]nc2ccc(-c3ccc4nccc(N5CCC(N)CC5)c4c3)cc12` registered an IC50 of 590 nM.

In the case of `CC(C)C[C@@H](/C=N/N1CC(=O)NC1=O)NC(=O)[C@H](CC(C)C)NC(=O)c1ccc(OCCN2CCOCC2)cc1`, the IC50 amounted to 270 nM.

For the molecule `CC(=O)N[C@H](C(=O)Nc1cccc(-c2ccc(-c3nc4c(C)cccc4[nH]3)s2)c1)C(C)C`, the IC50 stood at 760 nM.

The molecule `Cc1ccc(Cl)c2sc(N3CCN(C(=O)c4ccc([N+](=O)[O-])o4)CC3)nc12` had an IC50 of 320 nM.

For the molecule `O=C(Nc1ccc(C(F)(F)F)cc1)c1cccc(S(=O)(=O)NC2CCN(CC3CCCCC3)CC2)c1`, the IC50 turned out to be 850 nM.

In turn, `O=C(CNC1CCCCC1)c1ccc(O)c(O)c1` yielded an IC50 of 660 nM. This IC50 and that of the molecule before are within 1.5-fold of each other.

With `CCn1c(CN2CCN(Cc3ccccc3)CC2)nc2cc(NC(=O)c3cccs3)ccc21`, the IC50 came to 400 nM.

Molecule `O=C(Nc1ccc(OC2CCN(Cc3ccc(F)cc3)C2)cc1)c1cccs1` (configuration not stated) had an IC50 of 640 nM. This IC50 is about 1.6-fold higher than that of the molecule before.

For `CC(C)c1ccc(NC(=O)NCC2CCCN(CCCCCNC(=O)/C=C/c3ccc(Cl)c(Cl)c3)C2)cc1` (configuration not stated), the IC50 was 810 nM.

In the case of `CCN(CC)Cc1cccc(-c2cc3c(-c4ccc(C(=O)O)c(C(C)C)c4)ccnc3[nH]2)c1OC`, the IC50 was found to be 320 nM.

`O=C(Nc1cccc(CN2CCN(Cc3ccc(O)cc3)CC2)c1)c1cc2ccccc2o1` displayed an IC50 of 1180 nM. Compared with the last molecule, the IC50 is about 3.7-fold higher.

In the case of `O=C(NC1CCN(Cc2ccccc2)CC1)c1ccc(-c2nc3cc4ccccc4cc3[nH]2)s1`, the IC50 was 600 nM.

`COc1ccc2nccc([C@@H](O)CN3CCC(NC(=O)C(=O)c4c[nH]c5c(C)cccc45)CC3)c2c1` showed an IC50 of 310 nM. This IC50 lies about 1.9-fold lower than the previous one.

Consider `Nc1nccc(-c2ccc3c(/C=C/c4ccccc4)cnc(N)c3c2)n1`, for which the IC50 was determined as 620 nM.

`C=C[C@H]1CN(CCCCCCC)CC[C@H]1CCN(C)c1ccnc2ccc(OC)cc12` gave an IC50 of 450 nM.

`c1ccc2c(NCCCCCCCCNc3ccnc4ccccc34)ccnc2c1` had an IC50 of 160 nM.
